# In PubChem BioAssay AID602166 (The Scripps Research Institute Molecular Screening Center, 2012):
# Active and inactive are the calls of the source. No rule for the calls is given here.
# Target: Nuclear receptor coactivator 3 (Homo sapiens) (UniProt Q9Y6Q9)
# Test: NCOA3 reporter inhibition potency – cell-based, luminescence, dose response (AID 602166);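 also: potency for reduction of SRC3 reporter signal so compounds are inhibitors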
# Details: SRC3 luciferase reporter cell assay
# Chain of Nuclear receptor coactivator 3 (Homo sapiens) (Q9Y6Q9 whole entry, looked up): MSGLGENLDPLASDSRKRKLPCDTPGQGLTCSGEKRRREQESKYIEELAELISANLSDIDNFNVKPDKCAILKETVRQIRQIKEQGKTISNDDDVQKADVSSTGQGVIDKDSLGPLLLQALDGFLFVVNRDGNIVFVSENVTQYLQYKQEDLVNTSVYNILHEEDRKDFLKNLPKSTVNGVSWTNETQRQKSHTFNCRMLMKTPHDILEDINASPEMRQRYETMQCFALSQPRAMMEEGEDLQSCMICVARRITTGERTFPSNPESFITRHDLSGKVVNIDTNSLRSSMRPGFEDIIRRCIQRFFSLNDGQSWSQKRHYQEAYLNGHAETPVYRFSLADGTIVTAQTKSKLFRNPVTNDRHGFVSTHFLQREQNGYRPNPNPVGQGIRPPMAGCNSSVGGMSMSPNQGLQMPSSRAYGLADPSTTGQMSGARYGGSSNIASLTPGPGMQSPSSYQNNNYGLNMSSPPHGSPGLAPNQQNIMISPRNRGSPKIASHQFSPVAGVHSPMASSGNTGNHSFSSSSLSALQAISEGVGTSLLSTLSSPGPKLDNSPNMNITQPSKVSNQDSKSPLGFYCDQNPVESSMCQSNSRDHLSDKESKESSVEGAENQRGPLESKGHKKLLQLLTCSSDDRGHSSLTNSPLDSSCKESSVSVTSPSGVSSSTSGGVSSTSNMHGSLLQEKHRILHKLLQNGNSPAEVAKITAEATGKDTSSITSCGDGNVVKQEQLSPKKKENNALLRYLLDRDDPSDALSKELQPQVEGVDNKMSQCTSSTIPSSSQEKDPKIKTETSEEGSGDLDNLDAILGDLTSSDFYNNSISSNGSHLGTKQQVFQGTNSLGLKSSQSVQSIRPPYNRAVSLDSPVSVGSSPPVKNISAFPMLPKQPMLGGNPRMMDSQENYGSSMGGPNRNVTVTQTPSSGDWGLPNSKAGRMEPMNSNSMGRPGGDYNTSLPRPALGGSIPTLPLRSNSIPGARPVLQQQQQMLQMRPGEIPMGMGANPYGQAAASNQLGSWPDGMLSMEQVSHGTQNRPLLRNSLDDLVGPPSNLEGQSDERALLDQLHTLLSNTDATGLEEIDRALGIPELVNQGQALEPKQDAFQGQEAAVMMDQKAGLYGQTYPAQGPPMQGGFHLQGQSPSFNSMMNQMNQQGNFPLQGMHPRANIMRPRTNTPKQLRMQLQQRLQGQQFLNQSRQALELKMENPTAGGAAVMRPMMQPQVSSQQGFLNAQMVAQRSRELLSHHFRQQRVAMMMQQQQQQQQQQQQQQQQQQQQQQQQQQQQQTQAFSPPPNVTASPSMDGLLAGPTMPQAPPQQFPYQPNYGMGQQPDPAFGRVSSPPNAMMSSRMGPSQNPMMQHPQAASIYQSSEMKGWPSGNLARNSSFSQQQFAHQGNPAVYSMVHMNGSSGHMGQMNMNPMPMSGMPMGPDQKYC
row,SMILES,IC50
1,O=C(Nc1cccc(C(F)(F)F)c1)Nc1nnc([C@@H]2C[C@H](O)[C@@H](CO)O2)s1,5.86 µM
2,C(=N\Nc1nc2ccccc2[nH]1)/c1cccc2cccnc12,9.18 µM
3,O=C(COc1ccc(Cl)cc1)Nc1ccc(C(=O)NCc2cccnc2)cc1,inactive
4,CCOC(=O)C(C(C)=O)c1c(Br)c(O)c(O)c2c(C(=O)c3ccc(C)cc3)coc12 (stereo unspecified),4.11 µM
5,CCOc1ccc(-c2cc(C)n3nc(C(N)=O)cc3n2)cc1,7.81 µM
6,C[C@@H](C(=O)Nc1ccc2c(c1)OCCO2)n1c(=O)[nH]c2ccccc2c1=O,> 35.9 µM (inactive)
7,Cc1nc2c(-c3ccc(Cl)cc3)cnn2c(N)c1-c1ccc(F)cc1,> 35.9 µM (inactive)
8,Cc1ccc(C2=NN(C(=O)CCl)C(c3cccs3)C2)o1 (stereo unspecified),inactive
9,CCOc1ccc(CC(=O)Nc2ccc(NC(=O)c3ccco3)cc2)cc1OCC,4.24 µM
10,C#CC(=O)N(c1cc(OC)ccc1OC)C(C(=O)NC1CCCC1)c1cccs1 (stereo unspecified),> 35.9 µM (inactive)
11,O=C(N/N=C(\c1ccccc1)c1ccccn1)c1ccccc1Cl,inactive
12,Cc1cccc2sc(NNC(=O)c3ccc(S(=O)(=O)N4CC(C)CC(C)C4)cc3)nc12 (stereo unspecified),5.91 µM
13,O=c1[nH]c2ccccc2n1C1CCN(C(c2ccccc2)c2nnnn2-c2ccc3c(c2)OCCO3)CC1 (stereo unspecified),inactive
14,CC(=O)OCCN1c2ccccc2Sc2cnccc21,5.67 µM
15,CC[C@@]1(O)C(=O)OCc2c1cc1n(c2=O)Cc2cc3c(NC(=O)CN)cccc3nc2-1,1.75 µM
16,Nc1ncccc1C(=O)OCC(=O)N1CCN(S(=O)(=O)c2ccc(Cl)cc2)CC1,7.74 µM
17,Nc1nc(=S)c2ncn([C@@H]3O[C@H](CO)[C@@H](O)[C@H]3O)c2[nH]1,2.55 µM
18,COC(=O)c1cccc2c1-c1ccccc1/C2=N/O,2.35 µM

row,SMILES,IC50
1,O=C(CCl)N(c1ccccc1)C1CCS(=O)(=O)C1 (stereo unspecified),6.92 µM
2,Cc1ccc(/C=C2/SC(=S)N(CCCC(=O)Nc3ccc(O)cc3)C2=O)cc1,6.45 µM
3,COc1ccc(C(C(=O)NC2CCCCC2)N(C(=O)CCl)c2ccc(Cl)cc2)cc1 (stereo unspecified),3.7 µM
4,CCCC(=O)NC(c1ccc(Cl)cc1Cl)c1ccc2cccnc2c1O (stereo unspecified),inactive
5,Cc1sc2ncnc(N3CCC(C(=O)Nc4ccccc4C(C)(C)C)CC3)c2c1C,5.75 µM
6,Cc1c(CC(=O)NCCCC(=O)O)c(=O)oc2cc3c(cc12)CCC(C)(C)O3,7.52 µM
7,COc1cc2c(ccc3cc(OC)c(OC)c(O)c32)cc1O,inactive
8,NS(=O)(=O)c1ccc(Sc2nc3ccccc3s2)c([N+](=O)[O-])c1,inactive
9,Cc1nc(N2CCC(C(N)=O)CC2)c2c(-c3cccs3)csc2n1,6.94 µM
10,CCOc1ccc(/C=C2\SC(=S)N(CCC(=O)O)C2=O)cc1,> 35.9 µM (inactive)
11,CC(=O)NC(c1cc(Cl)c2cccnc2c1O)C(C)C (stereo unspecified),4.54 µM
12,CCn1c2ccccc2c2cnc(N=CN(C)C)c(C#N)c21,4.94 µM
13,Cc1nc([N+](=O)[O-])c(Sc2nc3ccccc3n2C)n1Cc1ccccc1,inactive
14,NC(=S)N/N=C1\CCSc2ccc(Cl)cc21,3.94 µM
15,Cc1ccc2nc(-c3ccncc3)c(NC3CCCC3)n2c1,inactive
16,c1cc2[nH]snc2c2nc(C3CC3)nc12,1.62 µM
17,CN(C)S(=O)(=O)c1ccc(N2CCN(S(=O)(=O)c3ccc(F)cc3)CC2)c(Cl)c1,7.88 µM
18,COc1cccc(-c2nnc3sc(C4CCCCC4)nn23)c1,1.73 µM
